Measurements taken from patent publication US9393329B2, “N-alkoxyamide conjugates as imaging agents” (Lantheus Medical Imaging, Inc., priority 2009, dated 2016).

Tests used:
[1] = test system: aorta bearing atherosclerotic plaque; assay: Ex-vivo blood vessel binding assay; parameters: species or system New Zealand white rabbits; details: 153Gd-labeled compound 0.135 μCi in phosphate buffered saline, plaque-bearing rabbit aorta sections, 2 h at 37° C., washed; percentage of initial activity
Procedure: Aorta bearing atherosclerotic plaque was obtained from New Zealand white rabbits that were balloon stripped along the abdominal aorta and placed on a high fat diet (0.5% cholesterol) for 16-22 weeks. Vascular injury was produced with a 4-F Fogarty catheter along the abdominal aorta and right iliofemoral artery. This procedure generates an accelerated complex lesion development with a lipid rich core covered by a fibrous cap in rabbits. Harvested aorta sections (0.5 cm) were incubated with 0.135 μCi of ^153Gd-labeled compound diluted in phosphate buffered saline (450 μL) for 2 h at 37° C. The supernatant was removed and analyzed by HPLC to assay compound stability. The tissue section was then washed with phosphate buffered saline (3×10 mL), then resuspended (10 mL) and incubated at 37° C. an additional 1 h. The supernatant was then removed, the washing process repeated and the tissue finally counted on a gamma counter. The amount of compound bound to the tissue was determined as a percentage of the initial activity according to the following formula: […]

[2] = test system: aorta of apolipoprotein E (ApoE) knockout mouse; assay: In-vivo ApoE mouse aorta uptake studies; details: ApoE knockout mice on high-fat diet, 0.3-0.4 mCi/kg bolus via tail vein; for aorta:blood / aorta:heart: 60 min, ratio; for aorta uptake (% ID/g): tissue harvested at 60 min
Procedure: Mice were fed a high-fat diet to accelerate plaque formation and compounds were tested in the mice between 35-42 weeks on diet. Test compounds were administered at 0.3-0.4 mCi/kg to anesthetized mice in a single, bolus injection via the tail vein. Blood samples were collected via the tail between 0-30 min post injection for pharmacokinetic analysis and mice were euthanized by CO2 at 60 min for tissue harvesting. The aorta was first flushed with saline through the left ventricle exiting via the femoral vein then removed from the heart to the renal bifurcation; additional biological samples were also collected (blood, muscle, liver, kidney, bile, urine, heart, femur, reproductive organ, lung, spleen and innominate artery). All samples were weighed and assayed for radioactivity; uptake is expressed as a percentage of injected dose per gram of tissue (% ID/g).

SMILES | % bound [1] [%] | aorta:blood [2] | aorta:heart [2] | aorta uptake (% ID/g) [2] [% ID/g]
CONC(=O)[C@@H](CCc1ccccc1)NCc1ccc(CNC(=O)CN2CCN(CC(=O)[O-])CCN(CC(=O)[O-])CCN(CC(=O)[O-])CC2)cc1.[153Gd+3] [Example 52] | 6.9 | 2.0 | 9.2 | 6.1 ± 1.2
O=C([O-])CN1CCN(CC(=O)[O-])CCN(CC(=O)NCc2ccc(CN[C@H](CCc3ccccc3)C(=O)NOCc3ccccc3)cc2)CCN(CC(=O)[O-])CC1.[153Gd+3] [Example 53] |  | 0.8 | 4.2 | 1.5 ± 0.1
CONC(=O)C(N)Cc1ccc(CNC(=O)CN2CCN(CC(=O)[O-])CCN(CC(=O)[O-])CCN(CC(=O)[O-])CC2)cc1.[153Gd+3] (stereo not shown) [Example 54] |  | 1.2 | 5.3 | 2.5 ± 0.5
NC(Cc1ccc(CNC(=O)CN2CCN(CC(=O)[O-])CCN(CC(=O)[O-])CCN(CC(=O)[O-])CC2)cc1)C(=O)NOCc1ccccc1.[153Gd+3] (stereo not shown) [Example 55] |  | 1.0 | 8.8 | 3.0 ± 2.3
